# Reference: US8722072B2, “Acaricidal and/or insecticidal active ingredient combinations” (priority 2010, dated 2014)
# What was measured:
# Type in all cases: in vivo
# [1] = tested on: whitefly (Bemisia tabaci); test: Example 10: Bemisia tabaci - test on cotton; conditions: cotton plants, spray
# Procedure: Bemisia tabaci—Test on Cotton
# (§1) • Solvent: 7 parts by weight of dimethylformamide • Emulsifer: 2 parts by weight of alkylaryl polyglycol ether
# (§2) An appropriate preparation of active ingredient is prepared by mixing 1 part by weight of active ingredient with the stated amounts of solvent and emulsifier and diluting the concentrate with emulsifier-containing water to the desired concentration.
# Cotton plants (Gossypium hirsutum) infested with whitefly (Bemisia tabaci) are treated by being sprayed with the preparation of active ingredient at the desired concentration.
# (§3) After the desired time, the destruction is determined in %. 100% here means that all of the whitefly have been killed; 0% means that no whitefly have been killed. The destruction figures ascertained are calculated by the Colby formula.
# [2] = tested on: two-spotted spider mite (Tetranychus urticae); test: Example 8: Tetranychus urticae - test on cotton; conditions: cotton plants, spray
# Procedure: Tetranychus urticae—Test on Cotton
# • Solvent: 7 parts by weight of dimethylformamide • Emulsifier: 2 parts by weight of alkylaryl polyglycol ether
# as §2
# Cotton plants (Gossypium hirsutum) infected with the two-spotted spider mite (Tetranychus urticae) are treated by being sprayed with the preparation of active ingredient in the desired concentration.
# After the desired time, a determination is made of the destruction in %. 100% here means that all of the mites have been killed; 0% means that no mites have been killed. The destruction figures ascertained are calculated by the Colby formula.
# Tetranychus urticae [3] = test: Example 6: field test on aubergines (Suqi qie) against Tetranychus urticae, ready-prepared mixture 20:1; conditions: for Destruction (% Abbott) 21 days (eggs) / Destruction (% Abbott) 21 days (males) / Destruction (% Abbott) 21 days (population): 21 days after treatment; for Destruction (% Abbott) 1 day: males on leaves, 1 day after treatment; for Destruction (% Abbott) 21 days (population): total population
# Procedure: In plots measuring approximately 8 m^2, aubergines (growth stage 15) of the cultivar “Suqi qie” are treated in three replications against Tetranychus urticae. Application takes place using a back-mounted sprayer. […] The water application rate is 450 l/ha.
# Evaluation is made 1 day after treatment, by scoring the destruction of the males on the leaves.
# A further evaluation is made 21 days after treatment, by scoring the destruction of the eggs, the destruction of the males, and the total population on the leaves.
# Tetranychus urticae [4] = test: Example 2: field test on roses (Blizard) against Tetranychus urticae; conditions: adults on leaves, 3 days after treatment
# Procedure: In plots measuring approximately 6 m^2, roses of the cultivar “Blizard” with an age of approximately 3 years are treated in three replications against Tetranychus urticae. Application takes place using a back-mounted spray (3.5 bar). […] The water application rate is 1320 l/ha. Evaluation is made 3 days after treatment, by counting the adults on the leaves/square inch. Subsequently, the activity is calculated as a percentage by the method of Henderson and Tilton.
# Tetranychus urticae [5] = test: Example 3: field test on tomatoes against Tetranychus urticae; conditions: adults on leaves, 3 days after treatment
# Procedure: In plots measuring approximately 6 m^2, tomatoes of the cultivar “Leader” are treated in three replications against Tetranychus urticae. Application takes place using a back-mounted spray (4.5 bar). […] The water application rate is 1000 l/ha.
# Evaluation is made 3 days after treatment, by scoring the destruction of the adults on the leaves.
# Hemitarsonemus latus = test: Example 7: field test on bell peppers against Hemitarsonemus latus; conditions: adults on leaves, 2 days after treatment
# Procedure: In plots measuring approximately 6 m^2, bell peppers of the cultivar “California Wonder” (growth stage 75) are treated in three replications against Hemitarsonemus latus. Application takes place using a sprayer at 2.5 bar pressure. […] The water application rate is 300 l/ha.
# Evaluation is made 2 days after treatment, by scoring the destruction of the adults on the leaves.
# [6] = tested on: larvae of the seven-spotted ladybird (Coccinella septempunctata); test: Example 13: Coccinella septempunctata larvae - test on plums (beneficial species); conditions: plum leaves, spray
# Procedure: Coccinella septempunctata/Larvae—Test on Plums
# An appropriate solution for application is prepared by diluting the respective formulation to the desired concentration.
# Plum leaves colonized by larvae of the seven-spotted ladybird (Coccinella septempunctata) are treated by being sprayed with the application solution at the desired concentration.
# After the desired time, the destruction is determined in %. 100% here means that all of the ladybird larvae have been killed; 0% means that no ladybird larvae have been killed. The destruction figures ascertained are calculated by the Colby formula.
# Tetranychus urticae [7] = test: Example 5: field test on roses (Freedom) against Tetranychus urticae; conditions: population on leaves, 1 day after treatment
# Procedure: In plots measuring approximately 14 m^2, roses (growth stage 46) of the cultivar “Freedom” in double rows are treated in three replications against Tetranychus urticae. Application takes place using a back-mounted spray. In this example, the mixture of the active ingredients Oberon, Example (I), and abamectin, Example (VI), is tested against the commercial standards abamectin (018 EC) and Oberon (240 SC) at the stated application rates and in the stated mixing ratios. The water application rate is 1000 l/ha.
# Evaluation is made 1 day after treatment, by scoring the destruction of the population on the leaves.
# [8] = tested on: whitefly (Bemisia tabaci); test: Example 11: Bemisia tabaci - test on cabbage; conditions: cabbage plants, spray
# Procedure: Bemisia tabaci—Test on Cabbage
# as §1, §2
# Cabbage plants (Brassica oleracea) infested with whitefly (Bemisia tabaci) are treated by being sprayed with the preparation of active ingredient at the desired concentration.
# as §3
# Tetranychus urticae [9] = test: Example 1: field test on aubergines against Tetranychus urticae; conditions: for Destruction (% Abbott) 1 day: 1 day after treatment; for Destruction (% Abbott) 55 days: 55 days after treatment; for Destruction (% Abbott) 45 days: 45 days after treatment
# Procedure: In plots measuring approximately 14 m^2, aubergines (around 11 weeks after planting out) of the cultivar “Heilongchangqie” are treated in three replications against Tetranychus urticae. Application takes place using a sprayer. […] The water application rate is 450 l/ha.
# Evaluation is made 1 day and 55 days after treatment, by scoring the destruction of the eggs on the leaves.
# A further evaluation is made 45 and 55 days after treatment, by scoring the destruction of the nymphs on the leaves.
# Tetranychus urticae [10] = test: Example 4: field test on cotton plants against Tetranychus urticae; conditions: population on leaves, 13 days after treatment
# Procedure: In plots measuring approximately 15 m^2, cotton plants of the cultivar “BRS Aroeira” with a height of approximately 80 cm are treated in three replications against Tetranychus urticae. Application takes place using a spray at 2.5 bar. […] The water application rate is 200 l/ha.
# Evaluation is made 13 days after treatment, by scoring the destruction of the population on the leaves.
# [11] = tested on: Frankliniella occidentalis; test: Example 9: field test on bell peppers against Frankliniella occidentalis; conditions: for Destruction (% Abbott) 7 days: adults in the flowers, 7 days after the second treatment; for Destruction (% Abbott) 14 days: mixed population in the flowers, 14 days after the second treatment
# Procedure: In plots measuring approximately 10 m^2, bell peppers of the cultivar “Italiano verde” are treated in three replications against Frankliniella occidentalis. Application is made using a back-mounted spray (10 bar). […] The water application rate is 750 l/ha. Two applications are carried out, at an interval of 7 days.
# Evaluation is made 7 days after the second treatment, by scoring the destruction of the adults in the flowers.
# Evaluation is made 14 days after the second treatment, by scoring the destruction of the mixed population in the flowers.
# [12] = nymphs on leaves, 120 g a.i./ha
molecule,measurement,setting,value
"Cc1cc(C)c(C2=C(OC(=O)CC(C)(C)C)C3(CCCC3)OC2=O)c(C)c1 [Oberon (I), Spiromesifen]",Destruction in % after 7d,[1]; 120 g ai/ha,70%
same,Destruction in % after 3d,[2]; 100 g ai/ha,30%
same,Destruction (% Abbott) 21 days (eggs),Tetranychus urticae [3]; 120 g a.i./ha,0 % Abbott
same,Destruction (% Abbott) 1 day,Tetranychus urticae [3]; 120 g a.i./ha,0 % Abbott
same,Destruction (% Abbott) 21 days (males),Tetranychus urticae [3]; 120 g a.i./ha,5 % Abbott
same,Destruction (% Abbott) 21 days (population),Tetranychus urticae [3]; 120 g a.i./ha,1.9 % Abbott
same,Activity (% H. + T.) 3 days,Tetranychus urticae [4]; 105 g a.i./ha,32.2 % H. + T.
same,Activity (% H. + T.) 3 days,Tetranychus urticae [4]; 210 g a.i./ha,40.7 % H. + T.
same,Destruction (% Abbott) 3 days,Tetranychus urticae [5]; 120 g a.i./ha,25.0 % Abbott
same,Destruction (% Abbott) 2 days,Hemitarsonemus latus; 120 g a.i./ha,50 % Abbott
same,Destruction in % after 3d,[6]; 60 g ai/ha,3%
same,Destruction in % after 3d,[6]; 120 g ai/ha,10%
same,Activity (% Abbott) 1 day,Tetranychus urticae [7]; 120 g a.i./ha,32.4 % Abbott
same,Destruction in % after 9d,[8]; 150 g ai/ha,55%
same,Destruction (% Abbott) 1 day,"Tetranychus urticae [9]; eggs on leaves, 120 g a.i./ha",26.7 % Abbott
same,Destruction (% Abbott) 55 days,"Tetranychus urticae [9]; eggs on leaves, 120 g a.i./ha",0 % Abbott
same,Destruction (% Abbott) 45 days,Tetranychus urticae [9]; [12],14.8 % Abbott
same,Destruction (% Abbott) 55 days,Tetranychus urticae [9]; [12],24.1 % Abbott
same,Destruction (% Abbott) 13 days,Tetranychus urticae [10]; 120 g a.i./ha,58.5 % Abbott
same,Destruction (% Abbott) 7 days,[11]; 105 g a.i./ha,3.3 % Abbott
same,Destruction (% Abbott) 14 days,[11]; 105 g a.i./ha,0 % Abbott
same,Destruction (% Abbott) 14 days,[11]; 210 g a.i./ha,0 % Abbott
abamectin [Abamectin (VI)],Destruction in % after 7d,[1]; 6 g ai/ha,0%
same,Destruction in % after 3d,[2]; 4 g ai/ha,10%
same,Destruction (% Abbott) 21 days (eggs),Tetranychus urticae [3]; 10 g a.i./ha,0 % Abbott
same,Destruction (% Abbott) 1 day,Tetranychus urticae [3]; 10 g a.i./ha,33.3 % Abbott
same,Destruction (% Abbott) 21 days (males),Tetranychus urticae [3]; 10 g a.i./ha,45 % Abbott
same,Destruction (% Abbott) 21 days (population),Tetranychus urticae [3]; 10 g a.i./ha,47.6 % Abbott
same,Activity (% H. + T.) 3 days,Tetranychus urticae [4]; 10.5 g a.i./ha,0 % H. + T.
same,Activity (% H. + T.) 3 days,Tetranychus urticae [4]; 21 g a.i./ha,0 % H. + T.
same,Destruction (% Abbott) 3 days,Tetranychus urticae [5]; 10 g a.i./ha,45.8 % Abbott
same,Destruction (% Abbott) 2 days,Hemitarsonemus latus; 10 g a.i./ha,0 % Abbott
same,Destruction in % after 3d,[6]; 3 g ai/ha,63%
same,Destruction in % after 3d,[6]; 6 g ai/ha,100%
same,Activity (% Abbott) 1 day,Tetranychus urticae [7]; 6 g a.i./ha,27 % Abbott
same,Destruction in % after 9d,[8]; 6 g ai/ha,0%
same,Destruction in % after 9d,[8]; 15 g ai/ha,0%
same,Destruction (% Abbott) 1 day,"Tetranychus urticae [9]; eggs on leaves, 10 g a.i./ha",19.8 % Abbott
same,Destruction (% Abbott) 55 days,"Tetranychus urticae [9]; eggs on leaves, 10 g a.i./ha",0 % Abbott
same,Destruction (% Abbott) 45 days,"Tetranychus urticae [9]; nymphs on leaves, 10 g a.i./ha",0 % Abbott
same,Destruction (% Abbott) 55 days,"Tetranychus urticae [9]; nymphs on leaves, 10 g a.i./ha",0 % Abbott
same,Destruction (% Abbott) 13 days,Tetranychus urticae [10]; 7.2 g a.i./ha,16.5 % Abbott
same,Destruction (% Abbott) 7 days,[11]; 10.5 g a.i./ha,0 % Abbott
same,Destruction (% Abbott) 14 days,[11]; 10.5 g a.i./ha,0 % Abbott
same,Destruction (% Abbott) 14 days,[11]; 21 g a.i./ha,2.0 % Abbott
